Where a name gives a salt, the structure may show the parent alone. The source made the active and inactive calls.
Columns and labels:
[1] = target: Voltage-gated inwardly rectifying potassium channel KCNH2 (Homo sapiens, UniProt Q12809); conditions: Potency;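 note: confirmatory quantitative high-throughput screen measuring inhibition of hERG channel activity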
[2] = target: Dual specificity tyrosine-phosphorylation-regulated kinase 1A (Rattus norvegicus, UniProt Q63470); type: biochemical, Homo sapiens
[3] = THP-1 cell cytotoxicity, dose response, cytotoxicity control for Vif-APOBEC3G degradation inhibitor project, THP-1 cells (AID 1117359); type: functional; conditions: Human immunodeficiency virus 1, THP-1
Beta-galactosidase = Beta-galactosidase (Escherichia coli, UniProt Q8VNN2); assay: PubChem AID 485352; type: functional
[4] = target: T1, Type-1 angiotensin II receptor (Homo sapiens, UniProt P30556); assay: AT1 receptor antagonists, dose response, selectivity assay for APJ receptor antagonist project, cell-based, uHTS hits (AID 463214); type: functional;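 note: antagonist potency against angiotensin II stimulated AT1 response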
T1 sequence (P30556 whole entry): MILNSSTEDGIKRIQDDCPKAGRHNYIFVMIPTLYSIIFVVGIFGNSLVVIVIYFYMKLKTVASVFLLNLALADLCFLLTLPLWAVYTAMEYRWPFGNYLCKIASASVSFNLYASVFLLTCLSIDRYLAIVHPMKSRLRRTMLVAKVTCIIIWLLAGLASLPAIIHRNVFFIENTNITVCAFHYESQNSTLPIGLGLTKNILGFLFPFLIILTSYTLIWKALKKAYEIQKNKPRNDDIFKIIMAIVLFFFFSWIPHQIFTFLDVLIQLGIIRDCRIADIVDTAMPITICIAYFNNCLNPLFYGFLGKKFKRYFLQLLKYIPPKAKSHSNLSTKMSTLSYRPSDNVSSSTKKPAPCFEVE

[5] = target: Heat shock protein HSP 90-alpha (Homo sapiens, UniProt P07900); type: functional, organism-based
[6] = target: Glucose-6-phosphate 1-dehydrogenase (Homo sapiens, UniProt P11413); assay: human G6PD enzyme inhibitors, dose response, selectivity assay for P. falciparum G6PD inhibitor project, biochemical, fluorescence (AID 504792); type: functional
Large T antigen = Large T antigen (Simian virus 40, UniProt P03070); type: functional, Betapolyomavirus macacae;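 note: Confirmatory-stage PubChem screen for compounds that inhibit SV40 T antigen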
Cytochrome P450 2C19 = Cytochrome P450 2C19 (Homo sapiens, UniProt P33261); assay: Cytochrome panel assay with activity outcomes. Panel member name: p450-cyp2c19 Compounds with AC50 equal or less than 10 uM are considered active; type: functional; conditions: read-out: AC50
Cytochrome P450 1A2 = target: T2, Cytochrome P450 1A2 (Homo sapiens, UniProt P05177);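 note: PubChem cytochrome P450 panel assay, CYP1A2 panel member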
T2 sequence (P05177 whole entry): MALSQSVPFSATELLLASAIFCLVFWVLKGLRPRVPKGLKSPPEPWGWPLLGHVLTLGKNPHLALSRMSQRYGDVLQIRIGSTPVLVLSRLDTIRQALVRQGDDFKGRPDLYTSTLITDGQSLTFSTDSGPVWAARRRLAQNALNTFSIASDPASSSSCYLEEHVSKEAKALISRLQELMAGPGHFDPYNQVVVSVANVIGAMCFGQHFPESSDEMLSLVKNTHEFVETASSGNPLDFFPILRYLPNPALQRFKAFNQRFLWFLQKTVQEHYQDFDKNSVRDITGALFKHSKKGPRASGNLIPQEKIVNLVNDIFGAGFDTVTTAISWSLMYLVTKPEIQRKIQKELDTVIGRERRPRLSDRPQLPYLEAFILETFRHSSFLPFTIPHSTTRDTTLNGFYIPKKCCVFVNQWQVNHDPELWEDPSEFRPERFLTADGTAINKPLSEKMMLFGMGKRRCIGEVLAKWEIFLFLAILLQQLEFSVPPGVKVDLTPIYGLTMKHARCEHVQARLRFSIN

[7] = target: Adenosylmethionine-8-amino-7-oxononanoate aminotransferase (Mycobacterium tuberculosis, UniProt P9WQ81); assay: Mycobacterium tuberculosis BioA enzyme inhibitor Measured in Biochemical System Using Plate Reader - 2163-02_Inhibitor_Dose_CherryPick_Activity.; type: functional, Mycobacterium tuberculosis UT205
[8] = LGR2 antagonists, dose response, cell-based, HEK293, CRE-luciferase reporter, cherry pick, set 2 (AID 743343); type: functional;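 note: transfected cells were stimulated with diluted bursicon conditioned medium after compound addition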
HEK293 [9] = assay: inhibitors of LMP1-driven NF-kB reporter, dose response, cell-based, HEK293, luciferase, cherry-pick (AID 588343); type: functional; conditions: Homo sapiens
[10] = MC4R antagonists, dose response, counter-screen for LGR2 antagonist project, cell-based, plate reader, cherry pick (AID 743444); type: functional;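 note: transfected HEK 293 cells stimulated with alpha-MSH peptide; potency of inhibitors of the alpha-MSH evoked signal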
[11] = target: T3, Heat shock factor protein 1 (Mus musculus, UniProt P38532); assay: inhibition of MG132-induced HSE-luciferase signal, confirmation, cell-based, NIH3T3, luminescence, dose retest (AID 2382); type: functional;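 note: NIH3T3 fibroblasts with HSF1-driven luciferase reporter stressed by proteasome inhibitor MG132; luminescence from HSF1-driven luciferase expression after 8 hours of MG132 stress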
T3 sequence (P38532 whole entry): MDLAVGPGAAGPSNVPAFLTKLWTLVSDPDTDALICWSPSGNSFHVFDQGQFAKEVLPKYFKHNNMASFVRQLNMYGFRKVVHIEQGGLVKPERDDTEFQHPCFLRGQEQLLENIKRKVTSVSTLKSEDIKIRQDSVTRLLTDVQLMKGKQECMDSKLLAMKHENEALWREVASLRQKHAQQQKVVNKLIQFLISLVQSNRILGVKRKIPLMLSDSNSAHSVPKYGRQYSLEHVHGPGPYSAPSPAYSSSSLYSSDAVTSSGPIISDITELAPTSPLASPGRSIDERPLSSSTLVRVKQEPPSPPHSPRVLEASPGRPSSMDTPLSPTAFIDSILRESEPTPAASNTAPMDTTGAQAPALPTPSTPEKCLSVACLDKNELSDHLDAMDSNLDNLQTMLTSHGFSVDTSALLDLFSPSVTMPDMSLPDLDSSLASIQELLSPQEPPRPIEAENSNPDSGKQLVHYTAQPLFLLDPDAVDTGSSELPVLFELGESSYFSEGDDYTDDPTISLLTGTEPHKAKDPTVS

HEK293 [12] = assay: cells; conditions: Homo sapiens
[13] = target: T4, Microphthalmia-associated transcription factor (Homo sapiens, UniProt O75030); assay: TRPM1 promoter luciferase signal decrease, dose response, MITF inhibitor project, cell-based, SK-MEL-5, cherry-picked, set 3 (AID 493073); type: functional
T4 sequence (O75030 whole entry): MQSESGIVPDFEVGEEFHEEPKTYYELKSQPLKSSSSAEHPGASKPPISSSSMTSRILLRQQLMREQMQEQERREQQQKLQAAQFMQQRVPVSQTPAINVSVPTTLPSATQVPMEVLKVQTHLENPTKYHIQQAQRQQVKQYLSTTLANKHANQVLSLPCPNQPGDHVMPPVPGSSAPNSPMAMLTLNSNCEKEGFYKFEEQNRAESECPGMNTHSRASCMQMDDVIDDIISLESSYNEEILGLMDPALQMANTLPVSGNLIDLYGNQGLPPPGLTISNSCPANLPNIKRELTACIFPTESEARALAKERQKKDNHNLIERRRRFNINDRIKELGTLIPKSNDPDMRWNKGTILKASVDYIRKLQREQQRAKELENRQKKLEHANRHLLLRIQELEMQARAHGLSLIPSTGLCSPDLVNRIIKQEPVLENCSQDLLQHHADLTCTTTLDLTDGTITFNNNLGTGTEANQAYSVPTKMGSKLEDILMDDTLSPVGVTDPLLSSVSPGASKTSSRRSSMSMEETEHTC

Tumor necrosis factor = Tumor necrosis factor (Homo sapiens, UniProt P01375); assay: TNFa-triggered NF-kB activation inhibitors, SAR follow-up, cell-based, revised (AID 2337); type: functional
[14] = target: T5, Nucleotide-binding oligomerization domain-containing protein 1 (Homo sapiens, UniProt Q9Y239); assay: NOD1 signaling inhibitors, SAR follow-up, revised (AID 2333); type: functional
T5 sequence (Q9Y239 whole entry): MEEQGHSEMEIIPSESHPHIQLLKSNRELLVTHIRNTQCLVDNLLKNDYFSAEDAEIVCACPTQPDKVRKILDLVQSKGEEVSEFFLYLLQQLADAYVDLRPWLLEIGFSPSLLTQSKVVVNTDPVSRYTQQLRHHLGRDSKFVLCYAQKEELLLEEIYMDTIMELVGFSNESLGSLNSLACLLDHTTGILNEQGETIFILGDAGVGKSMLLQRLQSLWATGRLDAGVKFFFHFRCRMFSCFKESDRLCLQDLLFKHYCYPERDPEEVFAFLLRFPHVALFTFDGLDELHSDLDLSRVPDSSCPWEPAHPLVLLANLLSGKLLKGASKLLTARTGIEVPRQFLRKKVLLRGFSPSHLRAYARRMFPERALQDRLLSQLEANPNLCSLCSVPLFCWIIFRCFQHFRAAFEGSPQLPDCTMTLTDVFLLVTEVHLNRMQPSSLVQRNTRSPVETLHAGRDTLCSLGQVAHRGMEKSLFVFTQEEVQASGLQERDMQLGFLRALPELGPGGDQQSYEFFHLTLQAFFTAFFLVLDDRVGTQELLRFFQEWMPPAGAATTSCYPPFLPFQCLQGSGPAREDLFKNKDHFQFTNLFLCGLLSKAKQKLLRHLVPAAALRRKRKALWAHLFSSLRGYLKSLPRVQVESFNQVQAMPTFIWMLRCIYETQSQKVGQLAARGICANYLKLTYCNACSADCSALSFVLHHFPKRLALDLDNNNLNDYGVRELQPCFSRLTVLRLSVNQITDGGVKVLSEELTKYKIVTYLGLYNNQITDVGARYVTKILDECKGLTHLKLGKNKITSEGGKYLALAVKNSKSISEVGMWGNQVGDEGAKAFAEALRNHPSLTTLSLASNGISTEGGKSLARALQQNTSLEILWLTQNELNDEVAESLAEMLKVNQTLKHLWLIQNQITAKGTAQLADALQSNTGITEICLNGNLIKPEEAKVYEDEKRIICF

Melanocortin receptor 4 = Melanocortin receptor 4 (Homo sapiens, UniProt P32245); type: functional, cell-based;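 note: Cell-based assay with luminescence read-out, confirmatory dose-response testing for agonist activity of biased ligands at MC4R; human U2OS cells with tagged receptor and beta-arrestin; potency of agonists that increase receptor coupling to beta-arrestin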
[15] = target: DNA repair and recombination protein RAD54-like (Homo sapiens, UniProt Q92698); assay: inhibitors of human RAD54 branch migration, confirmation, biochemical, fluorescence, cherry-picked samples, dose series (AID 651657); type: functional
H9c2 = assay: cells; type: functional, cell-based; conditions: Rattus norvegicus, H9c2, Myocardium;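 note: confirmatory concentration-response retest of ultra-high-throughput screening hits for modulation of myocardial damage; cell death induced by hydrogen peroxide oxidative stress; compound pretreatment for 60 min then peroxide exposure for 2 h; potency is for protecting the cells against peroxide damage rather than for killing them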
[16] = target: T6, Low molecular weight phosphotyrosine protein phosphatase (Homo sapiens, UniProt P24666); type: functional; conditions: read-out: IC50_Mean;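 note: Dose-response confirmation assay measuring inhibition of LMPTP enzyme activity by fluorescence intensity read-out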
T6 sequence (P24666 whole entry): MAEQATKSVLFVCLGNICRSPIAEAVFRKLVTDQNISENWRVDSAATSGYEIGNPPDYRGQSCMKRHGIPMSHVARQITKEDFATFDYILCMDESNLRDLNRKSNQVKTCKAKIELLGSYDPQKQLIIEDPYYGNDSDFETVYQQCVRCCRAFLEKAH

[17] = target: T7, DNA repair protein RAD52 homolog (Homo sapiens, UniProt P43351); type: functional, biochemical
T7 sequence (P43351 whole entry): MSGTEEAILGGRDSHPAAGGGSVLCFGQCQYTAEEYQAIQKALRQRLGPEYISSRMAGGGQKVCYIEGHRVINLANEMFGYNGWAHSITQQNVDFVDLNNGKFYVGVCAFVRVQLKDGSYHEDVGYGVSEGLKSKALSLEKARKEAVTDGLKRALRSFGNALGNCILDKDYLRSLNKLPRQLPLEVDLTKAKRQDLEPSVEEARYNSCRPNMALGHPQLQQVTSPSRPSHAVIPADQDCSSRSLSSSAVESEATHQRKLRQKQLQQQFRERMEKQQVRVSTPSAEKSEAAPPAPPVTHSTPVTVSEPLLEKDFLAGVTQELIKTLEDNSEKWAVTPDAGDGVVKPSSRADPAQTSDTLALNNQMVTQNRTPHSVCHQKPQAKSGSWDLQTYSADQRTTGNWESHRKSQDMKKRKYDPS

Sequence of Glucose-6-phosphate 1-dehydrogenase (P11413 whole entry): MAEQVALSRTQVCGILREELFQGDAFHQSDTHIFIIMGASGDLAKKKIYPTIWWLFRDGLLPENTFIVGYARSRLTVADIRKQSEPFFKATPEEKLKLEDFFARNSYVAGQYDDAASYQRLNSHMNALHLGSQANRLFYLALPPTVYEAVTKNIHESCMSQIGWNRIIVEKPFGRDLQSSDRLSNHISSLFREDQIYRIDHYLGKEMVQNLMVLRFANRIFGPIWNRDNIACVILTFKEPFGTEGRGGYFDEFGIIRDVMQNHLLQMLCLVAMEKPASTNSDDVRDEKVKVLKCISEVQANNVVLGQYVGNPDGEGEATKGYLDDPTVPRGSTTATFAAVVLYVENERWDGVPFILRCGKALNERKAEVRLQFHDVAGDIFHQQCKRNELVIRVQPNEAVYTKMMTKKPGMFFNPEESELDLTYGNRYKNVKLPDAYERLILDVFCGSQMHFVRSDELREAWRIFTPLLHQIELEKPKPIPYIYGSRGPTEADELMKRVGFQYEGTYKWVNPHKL
Sequence of Voltage-gated inwardly rectifying potassium channel KCNH2 (Q12809 whole entry): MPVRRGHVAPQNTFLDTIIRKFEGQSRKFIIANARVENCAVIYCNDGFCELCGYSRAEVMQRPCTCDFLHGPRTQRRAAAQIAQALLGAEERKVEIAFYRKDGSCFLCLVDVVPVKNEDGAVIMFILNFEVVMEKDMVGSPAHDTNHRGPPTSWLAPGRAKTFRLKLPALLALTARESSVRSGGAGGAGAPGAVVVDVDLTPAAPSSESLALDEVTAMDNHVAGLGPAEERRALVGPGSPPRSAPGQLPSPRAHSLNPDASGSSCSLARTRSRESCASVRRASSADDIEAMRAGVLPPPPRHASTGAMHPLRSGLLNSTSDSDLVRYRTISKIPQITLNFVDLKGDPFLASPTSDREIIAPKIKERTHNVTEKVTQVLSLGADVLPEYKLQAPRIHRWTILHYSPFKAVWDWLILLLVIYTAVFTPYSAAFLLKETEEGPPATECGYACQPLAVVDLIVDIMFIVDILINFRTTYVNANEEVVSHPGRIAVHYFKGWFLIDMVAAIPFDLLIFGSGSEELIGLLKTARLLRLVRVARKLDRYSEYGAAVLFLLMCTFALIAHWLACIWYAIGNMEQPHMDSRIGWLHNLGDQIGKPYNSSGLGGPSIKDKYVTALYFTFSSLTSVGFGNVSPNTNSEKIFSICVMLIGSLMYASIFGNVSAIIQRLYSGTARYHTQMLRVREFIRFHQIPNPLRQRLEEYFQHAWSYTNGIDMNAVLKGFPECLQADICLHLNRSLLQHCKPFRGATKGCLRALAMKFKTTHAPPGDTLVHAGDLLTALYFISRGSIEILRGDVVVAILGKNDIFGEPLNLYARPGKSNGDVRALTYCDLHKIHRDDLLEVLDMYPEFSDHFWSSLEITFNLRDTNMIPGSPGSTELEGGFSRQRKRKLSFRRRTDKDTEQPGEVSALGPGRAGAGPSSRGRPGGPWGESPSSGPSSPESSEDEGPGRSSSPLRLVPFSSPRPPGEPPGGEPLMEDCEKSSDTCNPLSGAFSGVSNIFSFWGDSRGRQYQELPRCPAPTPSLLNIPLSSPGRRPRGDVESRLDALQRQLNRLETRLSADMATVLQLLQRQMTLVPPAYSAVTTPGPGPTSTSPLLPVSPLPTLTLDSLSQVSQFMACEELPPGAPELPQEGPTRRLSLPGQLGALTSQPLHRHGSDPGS
Sequence of Adenosylmethionine-8-amino-7-oxononanoate aminotransferase (P9WQ81 whole entry): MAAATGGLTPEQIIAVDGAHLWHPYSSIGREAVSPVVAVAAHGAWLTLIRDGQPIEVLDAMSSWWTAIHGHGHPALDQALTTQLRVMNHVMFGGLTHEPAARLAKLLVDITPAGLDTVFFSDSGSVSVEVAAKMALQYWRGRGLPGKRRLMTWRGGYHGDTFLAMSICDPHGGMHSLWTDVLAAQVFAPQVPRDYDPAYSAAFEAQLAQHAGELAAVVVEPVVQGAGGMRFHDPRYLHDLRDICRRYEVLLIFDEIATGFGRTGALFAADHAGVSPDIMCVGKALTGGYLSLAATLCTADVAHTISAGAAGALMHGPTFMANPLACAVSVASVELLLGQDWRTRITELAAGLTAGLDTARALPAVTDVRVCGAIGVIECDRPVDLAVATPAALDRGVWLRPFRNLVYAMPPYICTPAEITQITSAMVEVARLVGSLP
Sequence of Melanocortin receptor 4 (P32245 whole entry): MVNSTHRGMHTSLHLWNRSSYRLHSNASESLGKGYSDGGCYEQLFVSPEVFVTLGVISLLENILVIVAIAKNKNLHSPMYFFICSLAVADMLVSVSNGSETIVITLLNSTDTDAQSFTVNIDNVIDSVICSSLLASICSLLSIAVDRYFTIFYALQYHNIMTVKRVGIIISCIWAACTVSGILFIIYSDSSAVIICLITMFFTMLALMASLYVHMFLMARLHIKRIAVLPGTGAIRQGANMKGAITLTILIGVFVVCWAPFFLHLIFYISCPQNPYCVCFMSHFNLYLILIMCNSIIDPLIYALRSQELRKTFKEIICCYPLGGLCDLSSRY
Sequence of Tumor necrosis factor (P01375 whole entry, the tested form may be a part): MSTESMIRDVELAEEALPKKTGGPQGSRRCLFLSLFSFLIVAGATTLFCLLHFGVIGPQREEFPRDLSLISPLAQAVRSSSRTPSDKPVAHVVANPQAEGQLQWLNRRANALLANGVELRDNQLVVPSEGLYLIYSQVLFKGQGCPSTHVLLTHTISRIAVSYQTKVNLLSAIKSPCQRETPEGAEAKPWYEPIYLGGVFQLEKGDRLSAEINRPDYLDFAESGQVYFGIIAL
Sequence of Beta-galactosidase (Q8VNN2 whole entry): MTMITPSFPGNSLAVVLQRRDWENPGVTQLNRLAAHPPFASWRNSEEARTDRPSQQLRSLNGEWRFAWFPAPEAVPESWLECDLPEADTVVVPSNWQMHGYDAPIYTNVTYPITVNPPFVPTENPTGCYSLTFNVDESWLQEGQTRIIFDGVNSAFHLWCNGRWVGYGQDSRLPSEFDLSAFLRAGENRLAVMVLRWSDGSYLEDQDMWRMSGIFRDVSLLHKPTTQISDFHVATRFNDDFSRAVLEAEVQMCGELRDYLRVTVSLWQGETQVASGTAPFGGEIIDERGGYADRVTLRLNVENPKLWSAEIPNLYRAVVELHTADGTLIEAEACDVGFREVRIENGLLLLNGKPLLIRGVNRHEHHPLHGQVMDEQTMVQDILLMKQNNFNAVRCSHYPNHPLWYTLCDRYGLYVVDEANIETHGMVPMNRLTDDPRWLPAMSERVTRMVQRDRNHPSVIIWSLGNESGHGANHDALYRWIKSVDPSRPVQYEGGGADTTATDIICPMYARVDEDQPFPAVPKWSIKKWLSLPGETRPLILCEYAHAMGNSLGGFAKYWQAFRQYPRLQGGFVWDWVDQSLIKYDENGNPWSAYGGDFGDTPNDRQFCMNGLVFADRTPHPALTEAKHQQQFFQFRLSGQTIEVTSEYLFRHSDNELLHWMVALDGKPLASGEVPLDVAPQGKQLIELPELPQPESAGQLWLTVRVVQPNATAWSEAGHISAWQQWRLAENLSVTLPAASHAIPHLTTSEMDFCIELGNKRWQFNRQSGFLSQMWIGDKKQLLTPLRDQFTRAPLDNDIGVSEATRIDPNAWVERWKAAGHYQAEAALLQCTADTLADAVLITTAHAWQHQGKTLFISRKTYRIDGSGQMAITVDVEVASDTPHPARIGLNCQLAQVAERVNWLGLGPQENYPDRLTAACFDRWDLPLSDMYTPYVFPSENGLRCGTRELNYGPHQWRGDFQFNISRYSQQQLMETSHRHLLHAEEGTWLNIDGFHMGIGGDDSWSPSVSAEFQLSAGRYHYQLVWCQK
Sequence of Large T antigen (P03070 whole entry): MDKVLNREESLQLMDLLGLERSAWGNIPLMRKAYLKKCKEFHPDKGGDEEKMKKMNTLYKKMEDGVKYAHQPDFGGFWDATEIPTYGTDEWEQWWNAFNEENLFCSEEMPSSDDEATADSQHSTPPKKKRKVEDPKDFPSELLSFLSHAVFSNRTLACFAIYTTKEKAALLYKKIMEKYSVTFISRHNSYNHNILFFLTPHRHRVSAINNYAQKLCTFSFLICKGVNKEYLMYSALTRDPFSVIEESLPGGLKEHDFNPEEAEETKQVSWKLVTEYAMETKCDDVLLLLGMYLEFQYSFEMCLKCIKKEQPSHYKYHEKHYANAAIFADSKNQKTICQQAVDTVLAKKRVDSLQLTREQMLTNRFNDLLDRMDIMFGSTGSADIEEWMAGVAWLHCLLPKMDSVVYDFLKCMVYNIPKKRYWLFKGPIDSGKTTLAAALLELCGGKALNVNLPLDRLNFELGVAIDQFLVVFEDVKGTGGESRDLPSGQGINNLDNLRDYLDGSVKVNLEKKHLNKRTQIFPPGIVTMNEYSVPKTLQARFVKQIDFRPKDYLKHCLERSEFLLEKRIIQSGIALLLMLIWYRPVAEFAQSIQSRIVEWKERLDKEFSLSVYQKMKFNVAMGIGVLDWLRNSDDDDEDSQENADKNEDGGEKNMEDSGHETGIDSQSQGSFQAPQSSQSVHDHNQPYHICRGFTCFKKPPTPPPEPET
Sequence of Cytochrome P450 2C19 (P33261 whole entry): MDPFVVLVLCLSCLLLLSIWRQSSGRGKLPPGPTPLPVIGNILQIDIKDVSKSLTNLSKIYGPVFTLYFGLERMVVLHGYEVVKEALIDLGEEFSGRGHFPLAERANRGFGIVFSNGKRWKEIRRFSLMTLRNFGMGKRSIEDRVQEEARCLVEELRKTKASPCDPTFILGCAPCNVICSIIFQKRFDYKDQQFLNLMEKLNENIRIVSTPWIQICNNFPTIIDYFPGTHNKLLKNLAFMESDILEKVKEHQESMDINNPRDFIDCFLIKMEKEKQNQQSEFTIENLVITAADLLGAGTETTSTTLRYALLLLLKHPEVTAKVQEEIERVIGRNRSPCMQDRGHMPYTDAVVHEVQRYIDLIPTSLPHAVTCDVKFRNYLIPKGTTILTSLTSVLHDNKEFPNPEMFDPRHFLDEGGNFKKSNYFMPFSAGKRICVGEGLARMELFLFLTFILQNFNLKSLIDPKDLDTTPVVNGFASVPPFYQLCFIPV

NCC(O)C1CCCCCCC1 (configuration not stated)
AC50 [1]: 15.8 µM (inconclusive)

NC1=NC(=O)/C(=C\c2ccc(O)c([N+](=O)[O-])c2)S1
AC50 [2]: 1.23 µM (active)

Cc1ccc(C(C[N+](=O)[O-])Sc2ccc(N)cc2)cc1 (configuration not stated)
CC50 [3]: > 40 µM (active) | EC50 (Beta-galactosidase): 31.3 µM (active) | IC50 [4]: 16.9 µM (active) | AC50 [5]: 4.99 µM (active)

COc1ccc(NC2CCCN(Cc3cccc4cnccc34)C2)cc1OC (configuration not stated)
IC50 [6]: > 80 µM (inactive) | IC50 (Large T antigen): 42.5 µM (active)

Cc1cc(/C=C(/C#N)C(=O)Nc2ccccc2)c(C)n1-c1cccnc1
AC50 (Cytochrome P450 2C19): 2 µM (inconclusive) | AC50 (Cytochrome P450 1A2): 1.78 µM (inconclusive) | AC50 [7]: 0.306 µM (active)

[O-]/[N+](=C\c1ccccc1)c1ccc(Br)cc1
IC50 [6]: 22.1 µM (inactive)

O=C(Nc1cccc(C(=O)O)c1)Nc1ccccc1Cl
AC50 [8]: 2.75 µM (active) | AC50 (HEK293 [9]): 4.97 µM (active) | AC50 [10]: 4.29 µM (active)

COCCn1c(C)cc(C(=O)COC(=O)c2ccccc2Br)c1C
EC50 [11]: < 0.16 µM (active) | IC50 (HEK293 [12]): > 20 µM (inactive) | AC50 [13]: 1.14 µM (active) | IC50 (Tumor necrosis factor): < 0.0391 µM (active) | IC50 [14]: 11.3 µM (active)

COc1ccc(COc2ccsc2C(=O)Nc2ccc(Cl)c(Cl)c2)cc1
EC50 (Melanocortin receptor 4): > 89.2 µM (inactive)

COC(=O)c1oc2ccc(OC)cc2c1N
AC50 [2]: 1.56 µM (active)

COc1ccc(OC)c2c(C)cc(NCCN3CCOCC3)nc12
AC50 [15]: 37.6 µM (active)

CCCn1cc(S(=O)(=O)CC(=O)Nc2ccc(OC)cc2OC)c2ccccc21
IC50 [6]: 59.9 µM (inactive)

NC(=S)NN=Cc1nccc2c(N)cccc12
AC50 (HEK293 [9]): 1.55 µM (active)

Cc1cccc(-n2c(SCC(=O)N(C)C3CCS(=O)(=O)C3)nc3ccccc3c2=O)c1C (configuration not stated)
AC50 [7]: 3.13 µM (active)

COc1cccc(-c2cnc3c(NC(C)=O)cc(-c4cc(OC)c(OC)c(OC)c4)cn23)c1
EC50 (Melanocortin receptor 4): > 89.2 µM (inactive) | IC50 (H9c2): > 79 µM (inactive)

CCOc1ccc(C(=O)N/N=C/c2cc([N+](=O)[O-])cs2)cc1
IC50 [16]: 14.4 µM (active)

O=C(O)C1=CCCN(CCON=C(c2ccccc2)c2ccccc2)C1
AC50 [1]: 35.5 µM (inconclusive)

CN(C)c1nc(N)c(C(=O)NC(=N)N)nc1Cl [5-(N,N-DIMETHYL)AMILORIDE HYDROCHLORIDE]
AC50 [1]: 17.8 µM (inconclusive) | AC50 [17]: 18 µM (active)

— ChEMBL document CHEMBL1201862, “PubChem BioAssay data set” (2004)
